Patent US4416884A, “Piperazinylbenzoheterocyclic compounds” (Otsuka Pharmaceutical Co., Ltd., priority 1978, dated 1983)
Values after ≈ are worked out from the molar mass of the structure shown. Where two headings read alike, the source gives them in different places.

Columns and labels:
Type in all cases: cell-based
[1] = system: Yersinia enterocolitica 0-5; assay: antimicrobial activity, serial dilution method on agar plate
[2] = system: Streptococcus pneumoniae Type I; assay: as above
Method in brief: (§1)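 Agar-plate serial dilution in Heart Infusion agar; inocula prepared at 1×10^8 cells/ml (O.D. 660 mμ=0.07 to 0.16) and at 1×10^6 cells/ml by dilution. Values are minimum inhibitory concentrations in mcg/ml.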

[3] = system: Hafnia alvei IFO 3731; assay: as above
Method in brief: as §1

[4] = system: Pseudomonas aeruginosa NCTC 10490; assay: as above
Method in brief: as §1

[5] = system: Enterobacter aerogenes IFO 12979; assay: as above; details: Klebsiella aerogenes
Method in brief: as §1

[6] = system: Bacillus subtilis PCI 219; assay: as above
Method in brief: as §1

[7] = system: Yersinia enterocolitica 0-3; assay: as above
Method in brief: as §1

[8] = system: Serattia marcescens IFO 12648; assay: as above
Method in brief: as §1

[9] = system: Proteus rettgeri NIH 96; assay: as above; details: Providencia rettgeri
Method in brief: as §1

[10] = system: Escherichia Coli NIHJ; assay: as above
Method in brief: as §1

[11] = system: Pseudomonas putida IFO 13696; assay: as above
Method in brief: as §1

[12] = system: Pseudomonas aeruginosa ATCC 10145; assay: as above
Method in brief: as §1

[13] = system: Streptococcus pneumoniae Type III; assay: as above
Method in brief: as §1

[14] = system: Shigella Sonnei EW 33; assay: as above; details: read-out: Minimum Inhibitory Concentration
Method in brief: as §1

[15] = system: Staphylococcus aureus FDA 209 P; assay: as above
Method in brief: as §1

[16] = system: Enterobacter cloacae; assay: as above
Method in brief: as §1

[17] = system: Proteus vulgaris IID OX-19; assay: as above; details: read-out: Minimum Inhibitory Concentration
Method in brief: as §1

[18] = system: Test Organism 21 (Bacillus subtilis PCI 219); assay: influence of the addition of horse serum on the MIC
[19] = system: Vibrio anguillarum IFO 12710; assay: antimicrobial activity on bacteria which cause infectious diseases in fish
Method: (§2) The antimicrobial activity of the following test compounds on various test organisms listed below was determined by the serial dilution method on agar plate (Heart Infusion agar produced by Difco Co.) (see CHEMOTHERAPY 22, pp. 1126-1128 (1974)), and the minimum inhibitory concentrations (mcg/ml) obtained are shown in Table 1 below.
(§3) A sample of each test organism was prepared so that the population of the organism was 1×10^8 cells/ml (O.D. 660 mμ=0.07 to 0.16) and 1×10^6 cells/ml (which was obtained by diluting the above 1×10^8 cells/ml preparation).
(§4) In the same manner as above, the antimicrobial activity of the following compounds on various test organisms which cause infectious diseases in fish was determined.

[20] = system: Aeromonas salmonicida IFO 12659; assay: as above
Method: as §2, §3, §4

[21] = system: Aeromonas salmonicida IFO 12718; assay: as above
Method: as §2, §3, §4

[22] = system: Pseudomonas fluorescens IFO 12568; assay: as above
Method: as §2, §3, §4

[23] = system: Vibrio anguillarum IFO 13266; assay: as above
Method: as §2, §3, §4

[24] = system: Aeromonas hydrophila IFO 12981; assay: as above
Method: as §2, §3, §4

[25] = system: Aeromonas hydrophila IFO 12658; assay: as above
Method: as §2, §3, §4

[26] = system: Pseudomonas fluorescens IFO 12180; assay: as above; details: IFO12180, read-out: Minimum Inhibitory Concentration
Method: as §2, §3, §4

[27] = read-out: Minimum Inhibitory Concentration, inoculum 1 × 10^6 cells/ml
[28] = read-out: Minimum Inhibitory Concentration, inoculum 1 × 10^8 cells/ml

Compound `CC1CCc2c(N3CCNCC3)ccc3c(=O)c(C(=O)O)cn1c23` (stereo not drawn) [A] has an MIC ([1]; Yersinia enterocolitica, 05, read-out: Minimum Inhibitory Concentration, inoculum 1 × 10^6 cells/ml) of 0.8 µg/mL (≈ 2.44 µM), an MIC ([1]; Yersinia enterocolitica, 05, read-out: Minimum Inhibitory Concentration, inoculum 1 × 10^8 cells/ml) of 0.8 µg/mL (≈ 2.44 µM) and an MIC [2, 27] of 3.1 µg/mL (≈ 9.47 µM). The MIC [2, 28] was 12.5 µg/mL (≈ 38.2 µM), the MIC ([3]; IFO3731, read-out: Minimum Inhibitory Concentration, inoculum 1 × 10^6 cells/ml) was 3.1 µg/mL (≈ 9.47 µM) and the MIC ([3]; IFO3731, read-out: Minimum Inhibitory Concentration, inoculum 1 × 10^8 cells/ml) was 6.3 µg/mL (≈ 19.2 µM). For the same compound, the MIC ([4]; NCTC10490, read-out: Minimum Inhibitory Concentration, inoculum 1 × 10^6 cells/ml) was 3.1 µg/mL (≈ 9.47 µM), the MIC ([4]; NCTC10490, read-out: Minimum Inhibitory Concentration, inoculum 1 × 10^8 cells/ml) was 6.3 µg/mL (≈ 19.2 µM) and the MIC ([5]; IFO12979, read-out: Minimum Inhibitory Concentration, inoculum 1 × 10^6 cells/ml) was 0.8 µg/mL (≈ 2.44 µM). The MIC ([5]; IFO12979, read-out: Minimum Inhibitory Concentration, inoculum 1 × 10^8 cells/ml) was 0.8 µg/mL (≈ 2.44 µM), the MIC ([6]; PCI219, read-out: Minimum Inhibitory Concentration, inoculum 1 × 10^6 cells/ml) was 0.8 µg/mL (≈ 2.44 µM) and the MIC ([6]; PCI219, read-out: Minimum Inhibitory Concentration, inoculum 1 × 10^8 cells/ml) was 0.8 µg/mL (≈ 2.44 µM). The MIC ([7]; Yersinia enterocolitica, 03, read-out: Minimum Inhibitory Concentration, inoculum 1 × 10^6 cells/ml) was 1.6 µg/mL (≈ 4.89 µM), the MIC ([7]; Yersinia enterocolitica, 03, read-out: Minimum Inhibitory Concentration, inoculum 1 × 10^8 cells/ml) was 3.1 µg/mL (≈ 9.47 µM) and the MIC [8, 27] was 1.6 µg/mL (≈ 4.89 µM). The MIC [8, 28] was 3.1 µg/mL (≈ 9.47 µM), the MIC ([9]; NIH96, read-out: Minimum Inhibitory Concentration, inoculum 1 × 10^6 cells/ml) was 0.4 µg/mL (≈ 1.22 µM) and the MIC ([9]; NIH96, read-out: Minimum Inhibitory Concentration, inoculum 1 × 10^8 cells/ml) was 0.4 µg/mL (≈ 1.22 µM). It also gave an MIC [10, 27] of 0.4 µg/mL (≈ 1.22 µM), an MIC [10, 28] of 0.8 µg/mL (≈ 2.44 µM) and an MIC ([11]; IFO13696, read-out: Minimum Inhibitory Concentration, inoculum 1 × 10^6 cells/ml) of 1.6 µg/mL (≈ 4.89 µM). The MIC ([11]; IFO13696, read-out: Minimum Inhibitory Concentration, inoculum 1 × 10^8 cells/ml) was 3.1 µg/mL (≈ 9.47 µM), the MIC ([12]; ATCC10145, read-out: Minimum Inhibitory Concentration, inoculum 1 × 10^6 cells/ml) was 6.3 µg/mL (≈ 19.2 µM) and the MIC ([12]; ATCC10145, read-out: Minimum Inhibitory Concentration, inoculum 1 × 10^8 cells/ml) was 6.3 µg/mL (≈ 19.2 µM). The MIC [13, 27] was 12.5 µg/mL (≈ 38.2 µM), the MIC [13, 28] was 25 µg/mL (≈ 76.4 µM) and the MIC ([14]; inoculum 1 × 10^6 cells/ml) was 0.4 µg/mL (≈ 1.22 µM). For the same compound, the MIC ([14]; inoculum 1 × 10^8 cells/ml) was 0.8 µg/mL (≈ 2.44 µM), the MIC ([15]; FDA209, read-out: Minimum Inhibitory Concentration, inoculum 1 × 10^6 cells/ml) was 3.1 µg/mL (≈ 9.47 µM) and the MIC ([15]; FDA209, read-out: Minimum Inhibitory Concentration, inoculum 1 × 10^8 cells/ml) was 6.3 µg/mL (≈ 19.2 µM). For the same compound, the MIC [16, 27] was 0.8 µg/mL (≈ 2.44 µM), the MIC [16, 28] was 0.8 µg/mL (≈ 2.44 µM) and the MIC ([17]; IIDOX19, inoculum 1 × 10^6 cells/ml) was 0.8 µg/mL (≈ 2.44 µM). For the same compound, the MIC ([17]; IIDOX19, inoculum 1 × 10^8 cells/ml) was 1.6 µg/mL (≈ 4.89 µM), the MIC ([18]; read-out: Minimum Inhibitory Concentration, horse serum 0%, inoculum 10^6) was 3.1 µg/mL (≈ 9.47 µM) and the MIC ([18]; read-out: Minimum Inhibitory Concentration, horse serum 0%, inoculum 10^8) was 6.3 µg/mL (≈ 19.2 µM). The MIC ([18]; read-out: Minimum Inhibitory Concentration, horse serum 10%, inoculum 10^6) was 3.1 µg/mL (≈ 9.47 µM), the MIC ([18]; read-out: Minimum Inhibitory Concentration, horse serum 10%, inoculum 10^8) was 3.1 µg/mL (≈ 9.47 µM) and the MIC ([18]; read-out: Minimum Inhibitory Concentration, horse serum 20%, inoculum 10^6) was 0.8 µg/mL (≈ 2.44 µM). It also gave an MIC ([18]; read-out: Minimum Inhibitory Concentration, horse serum 20%, inoculum 10^8) of 1.6 µg/mL (≈ 4.89 µM), an MIC ([18]; read-out: Minimum Inhibitory Concentration, horse serum 40%, inoculum 10^6) of 0.8 µg/mL (≈ 2.44 µM) and an MIC ([18]; read-out: Minimum Inhibitory Concentration, horse serum 40%, inoculum 10^8) of 0.8 µg/mL (≈ 2.44 µM). For the same compound, the MIC ([19]; IFO12710, read-out: Minimum Inhibitory Concentration, inoculum 10^6) was 3.1 µg/mL (≈ 9.47 µM), the MIC ([19]; IFO12710, read-out: Minimum Inhibitory Concentration, inoculum 10^8) was 3.1 µg/mL (≈ 9.47 µM) and the MIC ([20]; IFO12659, inoculum 10^6, read-out: Minimum Inhibitory Concentration) was 0.2 µg/mL (≈ 0.611 µM). The MIC ([20]; IFO12659, inoculum 10^8, read-out: Minimum Inhibitory Concentration) was 0.4 µg/mL (≈ 1.22 µM), the MIC ([21]; IFO12718, inoculum 10^6, read-out: Minimum Inhibitory Concentration) was 0.2 µg/mL (≈ 0.611 µM) and the MIC ([21]; IFO12718, inoculum 10^8, read-out: Minimum Inhibitory Concentration) was 0.4 µg/mL (≈ 1.22 µM). It also gave an MIC ([22]; IFO12568, read-out: Minimum Inhibitory Concentration, inoculum 10^6) of 12.5 µg/mL (≈ 38.2 µM), an MIC ([22]; IFO12568, read-out: Minimum Inhibitory Concentration, inoculum 10^8) of 25 µg/mL (≈ 76.4 µM) and an MIC ([23]; IFO13266, read-out: Minimum Inhibitory Concentration, inoculum 10^6) of 0.1 µg/mL (≈ 0.305 µM). For the same compound, the MIC ([23]; IFO13266, read-out: Minimum Inhibitory Concentration, inoculum 10^8) was 0.2 µg/mL (≈ 0.611 µM), the MIC ([24]; IFO12981, inoculum 10^6, read-out: Minimum Inhibitory Concentration) was 0.2 µg/mL (≈ 0.611 µM) and the MIC ([24]; IFO12981, inoculum 10^8, read-out: Minimum Inhibitory Concentration) was 0.2 µg/mL (≈ 0.611 µM). It also gave an MIC ([25]; IFO12658, inoculum 10^6, read-out: Minimum Inhibitory Concentration) of 0.1 µg/mL (≈ 0.305 µM), an MIC ([25]; IFO12658, inoculum 10^8, read-out: Minimum Inhibitory Concentration) of 0.2 µg/mL (≈ 0.611 µM) and an MIC [26] of 3.1 µg/mL (≈ 9.47 µM).
